Reference: patent US20050054025A1 (priority 2003, published 2005)
In brackets after ≈: the same amount, converted by molar mass. Marks after values point to notes of the source that are not given here.

Legend:
acetylcholinesterase [1] = molecular target: acetylcholinesterase (Homo sapiens, UniProt P22303); assay: biochemical; format: biochemical; details: for IC20: read-out: Porex Dot Test IC20
acetylcholinesterase [2] = details: cited from earlier work

acetylcholinesterase (Homo sapiens, UniProt P22303), sequence (P22303 32-614, species assumed): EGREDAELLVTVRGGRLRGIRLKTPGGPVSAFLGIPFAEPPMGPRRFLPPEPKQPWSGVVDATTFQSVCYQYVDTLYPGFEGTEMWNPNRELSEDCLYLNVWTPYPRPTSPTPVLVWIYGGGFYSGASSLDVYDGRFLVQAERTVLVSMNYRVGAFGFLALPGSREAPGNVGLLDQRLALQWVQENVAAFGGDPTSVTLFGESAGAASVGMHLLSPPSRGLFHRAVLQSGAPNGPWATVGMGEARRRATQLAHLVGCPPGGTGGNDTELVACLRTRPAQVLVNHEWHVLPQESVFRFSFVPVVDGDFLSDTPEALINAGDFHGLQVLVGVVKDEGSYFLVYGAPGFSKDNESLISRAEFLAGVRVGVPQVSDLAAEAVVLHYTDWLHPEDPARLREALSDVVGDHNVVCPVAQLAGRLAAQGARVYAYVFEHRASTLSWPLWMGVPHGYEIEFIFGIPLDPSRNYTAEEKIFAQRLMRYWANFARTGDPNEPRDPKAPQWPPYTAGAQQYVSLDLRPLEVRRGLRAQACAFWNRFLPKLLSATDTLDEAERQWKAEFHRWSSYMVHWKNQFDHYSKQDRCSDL

Row | SMILES | IC20 (acetylcholinesterase [1]) [ng/mL] | EnviroLogix IC20 (acetylcholinesterase [2]) [μg/L] | also measured
1 | CCOP(=S)(OCC)SCCSCC [Disulfoton] | 0.5 (≈ 1.82 nM) | – | –
2 | CNC(=O)Oc1cccc2ccccc12 [Carbaryl] | 9 (≈ 44.7 nM) | 110 | –
3 | CCOP(=O)(OCC)Oc1ccc([N+](=O)[O-])cc1 [Paraoxon] | – | – | detectable amount using instrument detection (acetylcholinesterase [1]): about 0.5 ng/mL; detectable level, determined visually (acetylcholinesterase [1]): 10 ng/mL
4 | CCOC(=O)CC(SP(=S)(OC)OC)C(=O)OCC (stereo not drawn) [Malithion] | – | 60 | Porex Dot Test IC20 (acetylcholinesterase [1]): 0.11 ng/mL
5 | CCOP(=S)(OCC)SCSC(C)(C)C [Terbufos] | 143 (≈ 496 nM) | – | EnviroLogix IC50 (cells marked *) (acetylcholinesterase [2]): 12* μg/L
6 | CNC(=O)ON=C(C)SC [Methomyl] | 0.011 (≈ 0.0678 nM) | – | –
7 | CNC(=O)Oc1cccc2c1OC(C)(C)C2 [Carbofuran] | 0.4 (≈ 1.81 nM) | 40 | –
8 | CCOP(=S)(OCC)Oc1cc(C)nc(C(C)C)n1 [Diazinon] | 0.14 (≈ 0.46 nM) | – | EnviroLogix IC50 (cells marked *) (acetylcholinesterase [2]): 3.0* μg/L
9 | CCOP(=S)(OCC)Oc1nc(Cl)c(Cl)cc1Cl [Chloropyrifos] | – | 5.2 | IC50 (acetylcholinesterase [1]): 285 pM
10 | CNC(=O)O/N=C/C(C)(C)SC [Aldicarb] | 33 (≈ 173 nM) | – | –
11 | CNC(=O)O/N=C(\SC)C(=O)N(C)C [Oxymyl] | – | 100 | Porex Dot Test IC20 (acetylcholinesterase [1]): 16.7 ng/mL
12 | CNC(=O)Oc1ccccc1OC(C)C [Baygon (propoxur), propoxur] | 9 (≈ 43 nM) | 50 | –
